{"source": "ChEMBL document CHEMBL6120976", "about": "“Derivatization of Microcystins Can Increase Target Inhibition while Reducing Cellular Uptake” (J Nat Prod, 2025)", "key": {"[1]": {"assay": "Selectivity index, ratio of EC50 for cytotoxicity against sodium butyrate-treated HEK293 cells transfected with OATP1B1 to EC50 for cytotoxicity against sodium butyrate-treated HEK293 cells transfected with OATP1B3", "assay_type": "cell-based"}, "[2]": {"system": "OATP1B1", "assay": "Cytotoxicity against sodium butyrate-treated HEK293 cells transfected with OATP1B1 incubated for 48 hrs by absorbance based assay", "assay_type": "toxicity, cell-based", "conditions": "human"}, "[3]": {"system": "OATP1B3", "assay": "Cytotoxicity against sodium butyrate-treated HEK293 cells transfected with OATP1B3 incubated for 48 hrs by absorbance based assay", "assay_type": "toxicity, cell-based", "conditions": "human"}, "[4]": {"assay": "Inhibition of PP1 (unknown origin) incubated for 2 hrs by absorbance based assay", "design": "species or system Homo sapiens"}, "[5]": {"assay": "Selectivity index, ratio of EC50 for cytotoxicity against sodium butyrate-treated HEK293 cells transfected with OATP1B3 to IC50 for inhibition of PP1 (unknown origin)", "assay_type": "cell-based"}, "[6]": {"assay": "Selectivity index, ratio of EC50 for cytotoxicity against sodium butyrate-treated HEK293 cells transfected with OATP1B1 to IC50 for inhibition of PP1 (unknown origin)", "assay_type": "cell-based"}}, "note": "Numbered stars: 1 amine (or outer) side, 2 acyl side, 3 side chain; on linkers, the order of the positions; unused ones are H or OH. Bridge positions count the residues as written; N and C are the ends. Square brackets hold non-standard residues; d marks the D form. Peptide text beside a SMILES is read from it. Adda = CO[C@@H](Cc1ccccc1)[C@@H](C)/C=C(C)/C=C/[C@H](N[*:1])[C@H](C)C(=O)[*:2]; dAsp(3S-Me) = C[C@H](C(=O)[*:3])[C@@H](N[*:1])C(=O)[*:2]; d(γGlu) = O=C(O)[C@@H](CCC(=O)[*:2])N[*:1]; NMeDha = C=C(NC)C(=O)O"}
{"smiles": "C=C1C(=O)N[C@H](C)C(=O)N[C@@H](CC(C)C)C(=O)N[C@@H](C(=O)O)[C@H](C)C(=O)N[C@@H](CCCNC(=N)N)C(=O)N[C@@H](/C=C/C(C)=C/[C@H](C)[C@H](Cc2ccccc2)OC)[C@H](C)C(=O)N[C@@H](C(=O)O)CCC(=O)N1C", "note": "[MICROCYSTIN-LR] (R[Adda][d(γGlu)][NMeDha][dA]L[dAsp(3S-Me)]-OH; lactam N-7)", "values": [{"measurement": "Ratio EC50", "setting": "[1]", "result": 1}, {"measurement": "EC50 at 48 h", "setting": "[2]", "result": 8.8, "unit": "nM"}, {"measurement": "EC50 at 48 h", "setting": "[3]", "result": 9.3, "unit": "nM"}, {"measurement": "IC50", "setting": "[4]", "result": 5.5, "unit": "nM"}, {"measurement": "Ratio", "setting": "[5]", "result": 1.7}, {"measurement": "Ratio", "setting": "[6]", "result": 1.6}]}
